How the values were obtained:
[1] = tested on: bovine cardiac myofibrils; test: Myofibril assay: PK/LDH-coupled steady-state ATPase activity of skinned bovine cardiac myofibrils; format: biochemical; conditions: Ca2+ activating to 75% of maximal rate
Summary of the method: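 Steady-state ATPase of detergent-skinned bovine left-ventricular myofibrils (1 mg/mL), PK/LDH-coupled NADH read at 340 nm, in PIPES/MgCl2 buffer pH 6.8 with 50 μM ATP, 0.6 mM EGTA and CaCl2 set for 50% or 75% activation. Inhibition of activity measured.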

[2] = tested on: adult cardiac ventricular rat myocytes; test: Adult ventricular myocyte contractility (fractional shortening); format: cell-based; conditions: 5 μM, 5 min perfusion
Description: Adult male Sprague-Dawley rats were anesthetized and the hearts were quickly excised, rinsed and the ascending aorta was cannulated. Continuous retrograde perfusion was initiated on the hearts at a perfusion pressure of 60 cm H2O. Hearts were first perfused with a nominally Ca^2+-free modified Krebs solution of the following composition: 113 mM NaCl, 4.7 mM KCl, 0.6 mM KH2PO4, 0.6 mM Na2HPO4, 1.2 mM MgSO4, 12 mM NaHCO3, 10 mM KHCO3, 30 mM taurine, 5.5 mM glucose and 10 mM Hepes (all Sigma). This medium was not recirculated and was continually aerated with a 95% O2/5% CO2 mixture. After approximately 3 minutes, the heart was perfused with a modified Krebs buffer supplemented with collagenase (Worthington) and 12.5 μM final calcium concentration. The heart was removed from the cannulae after the heart appeared blanched and soft in appearance. The atria and vessels were removed and the ventricles were gently dissected into smaller pieces with forceps. The tissue was homogenized by repeated pipette trituration and the collagenase reaction was stopped by 10% bovine calf serum (BCS), sedimentation and resuspension in perfusion buffer containing 5% BCS and 12.5 uM CaCl2. Myocytes were made calcium tolerant by stepwise addition of a CaCl2 solution to a final concentration of 1.2 mM. Cells were then washed and resuspended in Tyrode's buffer (137 mM NaCl, 3.7 mM KCl, 0.5 mM MgCl, 11 mM glucose, 4 mM Hepes, and 1.2 mM CaCl2, pH 7.4). Cells were kept for 60 min at 37° C. prior to initiating experiments and used within 5 hrs of isolation. […] Additionally, only cells whose basal contractility was between 3 and 8% were used in subsequent experiments with compounds.
Aliquots of myocytes in Tyrode's buffer were placed in perfusion chambers (series 20 RC-27NE; Warner Instruments) complete with heating platforms. Myocytes were allowed to attach, the chambers were heated to 37° C., and the cells were perfused with 37° C. Tyrode's buffer. Myocytes were field stimulated at 1 Hz in with platinum electrodes (20% above threshold). Only cells that had clear striations and were quiescent prior to pacing were used for contractility experiments. To determine basal contractility, myocytes were imaged through a 40× objective. […] Once cell contraction was stable over time, test compounds (0.01-15 μM) were perfused into the chambers on the myocytes for 5 minutes. Contractility of the myocytes and contraction and relaxation velocities were then recorded using edge detection.
Five or more individual myocytes were tested per compound from two or more different myocyte preparations. For each cell, twenty or more contractility transients at basal (defined as 1 min prior to compound infusion) and after compound addition (defined as 5 min after starting compound perfusion), were averaged and compared. These average transients were analyzed using the IonWizard software (IonOptix) to determine changes in diastolic length and fractional shortening. Fractional shortening was calculated as: ((resting length−length at peak contraction) divided by the resting length). The percent change in fractional shortening from baseline was calculated as: ((post-dose fractional shortening/basal fractional shortening)*100). The percent reduction in fractional shortening from baseline was calculated as: (100−percent change in fractional shortening from baseline). Maximum contraction and relaxation velocities (um/sec) was also determined. Results from individual cells were averaged and the SEM was calculated.

[3] = tested on: male Sprague Dawley rats; test: Echocardiography assessment of acute pharmacodynamic effect on rat cardiac contractility, oral dosing; format: in vivo
Description: Assessment of in vivo cardiac function by echocardiography was performed in male Sprague Dawley rats under isoflurane (1-3%) anesthesia. 2-D M-mode images of the left ventricle were acquired in the parasternal long-axis view before, during, and after administration of compounds by continuous IV infusion or oral gavage. In vivo fractional shortening was determined by M-mode image analysis with the following calculation: ((End diastolic diameter−end systolic diameter)/end diastolic diameter×100). For continuous IV infusion experiments, three pre-dose baseline M-mode images were taken at 1 minute intervals prior to infusion of compound. Compounds were formulated in 50% Propylene Glycol (PG): 16% Captisol: 10% dimethylacetamide (DMA) and delivered via a jugular vein catheter at the rate of 1 mL/kg/h. During infusion, M-mode images were taken at 5 minute intervals. The infusion was stopped when fractional shortening reached up to a 60% reduction from baseline. Blood samples were taken to determine the plasma concentration of the compounds. Data were reported as an estimated IC50 value, which is the concentration at which fractional shortening is 50% of the pre-dose baseline contractility.
For oral dosing studies, three pre-dose baseline M-Mode images were taken at 1 minute intervals prior to compound administration. Compounds were formulated in a 0.5% hydroxypropyl methylcellulose 2910 (HPMC 2910): 0.1% Tween 80 suspension and delivered as a single dose (5 mL/kg) by oral gavage. At one and four hours post-dose, rats were lightly anesthetized for M-mode echocardiography measurement. The compound effect on cardiac fractional shortening are presented as a percent reduction of baseline fractional shortening (=100%) in Table D.
Concurrent with echocardiography measurements, blood samples are taken to determine the corresponding compound plasma concentration, which may be represented as IC50 and IC10 values, which is the concentration at which fractional shortening is 50% and 10% of the pre-dose baseline contractility, respectively.

Compound: CC(C)N1CC(=O)N(Cc2ccc(Cl)cc2)C(c2ccc(Cl)cc2)C1=O (single isomer, unassigned) [Compound 288A, 3-(4-chlorophenyl)-4-[(4-chlorophenyl)methyl]-1-(propan-2-yl)piperazine-2,5-dione]
- CDMF75 IC15 [1]: 0.8 µM
- % FS (% reduction from baseline) ± SEM [2]: 64.4 ± 9.7%

Compound: N#Cc1ccc(N2CC(=O)N(Cc3ccc(C(F)(F)F)cc3)C3(CN(C=O)C3)C2=O)c(F)c1 [Compound 179, 3-fluoro-4-(2-formyl-6,9-dioxo-5-(4-(trifluoro-methyl)benzyl)-2,5,8-triazaspiro[3.5]nonan-8-yl)benzonitrile]
- CDMF75 IC15 [1]: 0.3 µM
- FS (% reduction from baseline) at 1 h (Mean ± SEM) ([3]; 3 mg/kg oral): 33.8 ± 2.6%
- FS (% reduction from baseline) at 4 h (Mean ± SEM) ([3]; 3 mg/kg oral): 4.5 ± 4.2%
- FS (% reduction from baseline) at 1 h (Mean ± SEM) ([3]; 6 mg/kg oral): 51.9 ± 4.0%
- FS (% reduction from baseline) at 4 h (Mean ± SEM) ([3]; 6 mg/kg oral): 15.0 ± 5.4%

Compound: N#Cc1ccc(N2CC(=O)N(Cc3ccc(C(F)(F)F)cc3)C3(CC3)C2=O)c(F)c1 [Compound 278, 4-(5,8-dioxo-4-(4-(trifluoromethyl)benzyl)-4,7-diazaspiro[2.5]octan-7-yl)-3-fluorobenzonitrile]
- CDMF75 IC15 [1]: 0.5 µM
- FS (% reduction from baseline) at 1 h (Mean ± SEM) ([3]; 3 mg/kg oral): 15.8 ± 2.0%
- FS (% reduction from baseline) at 4 h (Mean ± SEM) ([3]; 3 mg/kg oral): 10.6 ± 5.6%
- FS (% reduction from baseline) at 1 h (Mean ± SEM) ([3]; 6 mg/kg oral): 34.4 ± 3.3%
- FS (% reduction from baseline) at 4 h (Mean ± SEM) ([3]; 6 mg/kg oral): 12.2 ± 4.2%

Compound: CC(=O)N1CC2(C1)C(=O)N(c1ccc(C#N)cc1F)CC(=O)N2[C@@H](C)c1ccc(C(F)(F)F)cc1 [Compound 339, (S)-4-(2-acetyl-6,9-dioxo-5-(1-(4-(trifluoromethyl)phenyl)ethyl)-2,5,8-triazaspiro[3.5]nonan-8-yl)-3-fluorobenzonitrile]
- CDMF75 IC15 [1]: 0.5 µM
- FS (% reduction from baseline) at 1 h (Mean ± SEM) ([3]; 2.5 mg/kg oral): 21.8 ± 2.8%
- FS (% reduction from baseline) at 4 h (Mean ± SEM) ([3]; 2.5 mg/kg oral): 5.8 ± 4.4%
- FS (% reduction from baseline) at 1 h (Mean ± SEM) ([3]; 5 mg/kg oral): 66.2 ± 2.9%
- FS (% reduction from baseline) at 4 h (Mean ± SEM) ([3]; 5 mg/kg oral): 19.9 ± 2.0%

Compound: NC(=O)C12CC(C3C(=O)N(c4ncc(Cl)cc4F)CC(=O)N3Cc3ccc(Cl)cc3)(C1)C2 (stereo not shown) [Compound 835, 3-(4-(5-chloro-3-fluoropyridin-2-yl)-1-(4-chlorobenzyl)-3,6-dioxopiperazin-2-yl)bicyclo[1.1.1]pentane-1-carboxamide]
- CDMF75 IC15 [1]: 1.64 µM

Compound: NC(=O)C12CC([C@H]3C(=O)N(c4ncc(Cl)cc4F)CC(=O)N3Cc3ccc(Cl)cc3)(C1)C2 [Compound 836, (S)-3-(4-(5-chloro-3-fluoro-pyridin-2-yl)-1-(4-chloro-benzyl)-3,6-dioxo-piperazin-2-yl)bicyclo-[1.1.1]pentane-1-carboxamide]
- CDMF75 IC15 [1]: 1.42 µM

Compound: NC(=O)C12CC([C@@H]3C(=O)N(c4ncc(Cl)cc4F)CC(=O)N3Cc3ccc(Cl)cc3)(C1)C2 [Compound 837, (R)-3-(4-(5-chloro-3-fluoro-pyridin-2-yl)-1-(4-chloro-benzyl)-3,6-dioxo-piperazin-2-yl)bicyclo-[1.1.1]pentane-1-carboxamide]
- CDMF75 IC15 [1]: >39 µM

Compound: O=C1C(C23CC(O)(C2)C3)N(Cc2ccc(C(F)(F)F)cc2)C(=O)CN1c1ncc(Cl)cc1F (stereo not shown) [Compound 838, 1-(5-chloro-3-fluoropyridin-2-yl)-3-(3-hydroxybicyclo[1.1.1]pentan-1-yl)-4-(4-(trifluoromethyl)benzyl)piperazine-2,5-dione]
- CDMF75 IC15 [1]: 3.8 µM

Compound: O=C1C(C23CC(O)(C2)C3)N(Cc2ccc(Cl)cc2)C(=O)CN1c1ncc(Cl)cc1F (stereo not shown) [Compound 841, 1-(5-chloro-3-fluoropyridin-2-yl)-4-(4-chlorobenzyl)-3-(3-hydroxybicyclo[1.1.1]-pentan-1-yl)piperazine-2,5-dione]
- CDMF75 IC15 [1]: 2.7 µM

Compound: O=C1C(C23CC(O)(C2)C3)N(Cc2ccc(F)cc2)C(=O)CN1c1ncc(Cl)cc1F (stereo not shown) [Compound 844, 1-(5-chloro-3-fluoropyridin-2-yl)-4-(4-fluorobenzyl)-3-(3-hydroxybicyclo[1.1.1]-pentan-1-yl)piperazine-2,5-dione]
- CDMF75 IC15 [1]: 8.6 µM

Compound: O=C1C(C23CC(O)(C2)C3)N(Cc2ccc(C(F)F)cc2)C(=O)CN1c1ncc(Cl)cc1F (stereo not shown) [Compound 849, 1-(5-chloro-3-fluoropyridin-2-yl)-4-(4-(difluoromethyl)-benzyl)-3-(3-hydroxy-bicyclo[1.1.1]pentan-1-yl)piperazine-2,5-dione]
- CDMF75 IC15 [1]: 5.7 µM

Compound: Cc1ccc(CN2C(=O)CN(c3ncc(Cl)cc3F)C(=O)C2C23CC(O)(C2)C3)cc1 (stereo not shown) [Compound 852, 1-(5-chloro-3-fluoropyridin-2-yl)-3-(3-hydroxybicyclo-[1.1.1]pentan-1-yl)-4-(4-methylbenzyl)piperazine-2,5-dione]
- CDMF75 IC15 [1]: 6.5 µM

Compound: Cc1cc(Cl)cnc1N1CC(=O)N(Cc2ccc(Cl)cc2)C2(CN(c3ccccn3)C2)C1=O [Compound 882, 8-(5-chloro-3-methyl-pyridin-2-yl)-5-(4-chloro-benzyl)-2-(pyridin-2-yl)-2,5,8-triazaspiro[3.5]-nonane-6,9-dione]
- CDMF75 IC15 [1]: 0.3 µM

Compound: Cc1cc(Cl)cnc1N1CC(=O)N(Cc2ccc(F)cc2)C2(CN(c3ccccn3)C2)C1=O [Compound 883, 8-(5-chloro-3-methyl-pyridin-2-yl)-5-(4-fluoro-benzyl)-2-(pyridin-2-yl)-2,5,8-triazaspiro[3.5]-nonane-6,9-dione]
- CDMF75 IC15 [1]: 0.4 µM

Compound: Cc1cc(Cl)cnc1N1CC(=O)N(Cc2ccc(Cl)cc2)C2(CN(c3ccc(F)cn3)C2)C1=O [Compound 884, 8-(5-chloro-3-methyl-pyridin-2-yl)-5-(4-chloro-benzyl)-2-(5-fluoropyridin-2-yl)-2,5,8-triazaspiro[3.5]-nonane-6,9-dione]
- CDMF75 IC15 [1]: 0.5 µM

Compound: Cc1cc(Cl)cnc1N1CC(=O)N(Cc2ccc(F)cc2)C2(CN(c3ccc(F)cn3)C2)C1=O [Compound 885, 8-(5-chloro-3-methyl-pyridin-2-yl)-5-(4-fluoro-benzyl)-2-(5-fluoropyridin-2-yl)-2,5,8-triazaspiro-[3.5]nonane-6,9-dione]
- CDMF75 IC15 [1]: 0.5 µM

Compound: Cc1cc(Cl)cnc1N1CC(=O)N(Cc2ccc(Cl)cc2)C2(CN(c3ccc(C#N)cn3)C2)C1=O [Compound 886, 6-(8-(5-chloro-3-methyl-pyridin-2-yl)-5-(4-chloro-benzyl)-6,9-dioxo-2,5,8-triazaspiro[3.5]nonan-2-yl)nicotinonitrile]
- CDMF75 IC15 [1]: 0.7 µM

Compound: Cc1cc(Cl)cnc1N1CC(=O)N(Cc2ccc(F)cc2)C2(CN(c3ccc(C#N)cn3)C2)C1=O [Compound 887, 6-(8-(5-chloro-3-methyl-pyridin-2-yl)-5-(4-fluoro-benzyl)-6,9-dioxo-2,5,8-triazaspiro[3.5]nonan-2-yl)nicotinonitrile]
- CDMF75 IC15 [1]: 0.9 µM
